For experiment [1], the system named is xanthine oxidase. More on the design: method as in PMID 18201686. To be noted: cited from earlier work.
Experiment [2] deals with xanthine oxidase. The arrangement: method as in PMID 30189275. The following applies: better than allopurinol; cited from earlier work.
Experiment [3] addresses T1, xanthine oxidase (Bos taurus, UniProt P80457).
T1 construct: xanthine oxidase (cow’s milk) were purchased from Sigma-Aldrich Chemicals; purchased Sigma-Aldrich Chemicals (St. Louis, MO, USA); host or cells: cow's milk (natural source)
In words: In vitro xanthine oxidase inhibitory assay. In kind it is biochemical, cow. The following applies: for inhibition at 6.25 µg/mL: 6.25 μg/mL; for inhibition at 12.5 µg/mL: 12.5 μg/mL; for inhibition at 25 µg/mL: 25 μg/mL; for inhibition at 50 µg/mL: 50 μg/mL; for IC50: mean ± S.E.M., n = 3, read-out: IC50 value of xanthine oxidase inhibition (converted). The method, then:
The xanthine oxidase inhibitory assay was carried out using a previously reported method with slight modifications. […] This was followed by dilution with potassium phosphate buffer (0.05 M, pH 7.5) to achieve the desired concentrations. Each test solution contained 0.5% DMSO. The assay was performed in triplicates in a 96-well microplate. […] Then, 100 μL of substrate solution, xanthine (0.15 mM, pH 7.5), was added before further incubating at 25 °C for 10 min. The final assay mixture was spectrophotometrically measured at 295 nm. Xanthine oxidase inhibitory activity was expressed as the percentage of xanthine oxidase inhibition and calculated using the following formula: %Xanthine Oxidase Inhibition=A−B−C−D/A−B×100

In experiment [4] the test system is xanthine oxidase. The arrangement: method as in PMID 8572586. To be noted: cited from earlier work.
The mark [5] stands for this setting: read-out: Percentage of xanthine oxidase inhibition.
The mark [6] stands for this setting: 100 μg/mL, read-out: Percentage of xanthine oxidase inhibition.

Where two headings read alike, the source gives them in different places.

Broadly, the inhibition is the share of the control response that was lost under treatment. In general, IC50 refers to the point on the concentration scale where inhibition reaches its midpoint.

T1 sequence (P80457 whole entry): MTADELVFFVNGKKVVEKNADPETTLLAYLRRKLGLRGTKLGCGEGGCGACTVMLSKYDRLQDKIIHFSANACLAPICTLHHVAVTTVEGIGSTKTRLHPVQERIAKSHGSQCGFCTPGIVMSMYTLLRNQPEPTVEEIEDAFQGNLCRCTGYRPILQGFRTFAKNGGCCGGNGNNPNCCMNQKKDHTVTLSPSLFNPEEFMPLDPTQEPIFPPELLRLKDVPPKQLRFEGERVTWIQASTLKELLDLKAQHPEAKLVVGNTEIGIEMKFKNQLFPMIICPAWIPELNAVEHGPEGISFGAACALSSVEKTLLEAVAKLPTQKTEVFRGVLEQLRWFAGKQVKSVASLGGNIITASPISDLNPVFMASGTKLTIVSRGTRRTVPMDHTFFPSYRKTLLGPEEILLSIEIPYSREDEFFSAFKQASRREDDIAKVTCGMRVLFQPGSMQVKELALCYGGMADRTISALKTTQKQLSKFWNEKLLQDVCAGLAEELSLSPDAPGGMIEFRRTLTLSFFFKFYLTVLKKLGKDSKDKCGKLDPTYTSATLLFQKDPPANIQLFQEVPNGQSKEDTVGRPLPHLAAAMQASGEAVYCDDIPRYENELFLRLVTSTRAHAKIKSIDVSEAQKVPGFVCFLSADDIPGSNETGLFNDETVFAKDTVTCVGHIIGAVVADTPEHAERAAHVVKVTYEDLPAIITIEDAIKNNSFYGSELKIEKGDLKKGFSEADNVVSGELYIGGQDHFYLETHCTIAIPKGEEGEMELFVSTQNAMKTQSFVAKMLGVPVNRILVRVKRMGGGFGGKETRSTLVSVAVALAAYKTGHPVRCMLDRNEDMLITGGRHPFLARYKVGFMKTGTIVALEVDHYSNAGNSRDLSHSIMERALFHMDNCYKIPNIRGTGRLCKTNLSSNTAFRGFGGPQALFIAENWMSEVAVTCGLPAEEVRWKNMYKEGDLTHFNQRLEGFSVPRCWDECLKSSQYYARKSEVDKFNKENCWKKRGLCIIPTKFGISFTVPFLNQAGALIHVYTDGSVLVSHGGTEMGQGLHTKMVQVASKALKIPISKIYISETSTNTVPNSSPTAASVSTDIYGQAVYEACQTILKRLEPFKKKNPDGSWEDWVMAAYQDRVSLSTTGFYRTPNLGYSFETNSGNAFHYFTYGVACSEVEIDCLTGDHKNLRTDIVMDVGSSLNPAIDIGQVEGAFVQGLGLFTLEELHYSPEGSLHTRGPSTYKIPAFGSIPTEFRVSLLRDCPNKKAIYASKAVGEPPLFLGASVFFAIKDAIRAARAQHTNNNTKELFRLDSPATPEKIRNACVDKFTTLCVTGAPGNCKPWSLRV

As to `O=c1cc(O)c2ccccc2o1` [4-hydroxycoumarin], in experiment [1], the “mode of inhibition against xanthine oxidase” value (“mode of inhibition” for short) is “competitive inhibition”.
For `O=c1oc2cc(O)cc(O)c2cc1-c1cccc(O)c1` [5,7-dihydroxy-3-(3-hydroxyphenyl) coumarin], the “xanthine oxidase inhibitory activity relative to allopurinol” value in experiment [2] is on record as 7 fold.
Turning to `Cc1cc(=O)oc2cc(O)c(O)cc12` [7-hydroxy-4-methylesculetin], the “mode of inhibition” value in experiment [1] was “competitive inhibition”.
As to `O=c1ccc2ccc(O)cc2o1` [7-hydroxycoumarin], the “mode of inhibition” value in experiment [1] was “competitive inhibition”.
Regarding `Oc1ncnc2[nH]ncc12` [Allopurinol, allopurinol, reference compound], in experiment [3] (setting [5]), the inhibition at 0.0064 µg/mL worked out at 4.12%, the inhibition at 0.032 µg/mL was 17.8%, the inhibition at 0.16 µg/mL was 29.5% and the inhibition at 0.8 µg/mL worked out at 93.7%. Moreover, in experiment [3] (setting [5]), the inhibition at 4 µg/mL came to 98.9%, the inhibition at 20 µg/mL turned out to be 99% and the inhibition at 100 µg/mL came to 99.8%.
On to `COc1cc(O)c(C)c2c(=O)oc(O)c(C)c12` [Compound 1, 3,7-dihydroxy-5-methoxy-4,8-dimethyl-isocoumarin], for which the inhibition at 0.39 µg/mL in experiment [3] (0.39 μg/mL, read-out: Percentage of xanthine oxidase inhibition) was determined as 39.6 ± 0.68%. Also, in experiment [3] (0.78 μg/mL, read-out: Percentage of xanthine oxidase inhibition), the inhibition at 0.78 µg/mL turned out to be 54.14 ± 0.34%. In experiment [3] (1.56 μg/mL, read-out: Percentage of xanthine oxidase inhibition), the inhibition at 1.56 µg/mL was 66.49 ± 0.05%. Further, the inhibition at 3.13 µg/mL in experiment [3] (3.13 μg/mL, read-out: Percentage of xanthine oxidase inhibition) turned out to be 76.17 ± 0.52%. Also, in experiment [3] (setting [5]), the inhibition at 6.25 µg/mL was found to be 86.02 ± 0.14%, the inhibition at 12.5 µg/mL stood at 91.75 ± 0.22%, the inhibition at 25 µg/mL was 95.04 ± 0.86% and the inhibition at 50 µg/mL was 96.91 ± 0.06%. Besides, the IC50 in experiment [3] is 2.79 µM.
Take `COC1=CC(=O)C(O)=C(CCCCCCC/C=C\CCCCCCCC2=C(O)C(=O)C=C(OC)C2=O)C1=O` [Compound 2, Ardisiaquinone A]: in experiment [3] (setting [5]), the inhibition at 6.25 µg/mL is 9.11 ± 0.28%, the inhibition at 12.5 µg/mL is 14.5 ± 0.45%, the inhibition at 25 µg/mL came out at 36.31 ± 0.08% and the inhibition at 50 µg/mL came to 74.08 ± 0.5%. The “xanthine oxidase inhibitory activity (in words)” value in experiment [3] (isolated compounds) was “low activity”. Further, the IC50 in experiment [3] was 59 µM.
`CCCC/C=C\CCCCCCCCCC1=C(O)C(=O)C=C(OC)C1=O` [Compound 3, Maesanin]: the inhibition at 100 µg/mL in experiment [3] (setting [5]) amounted to 0%.
Turning to `CC[C@H](/C=C/[C@@H](C)[C@H]1CC[C@H]2[C@@H]3CC=C4C[C@@H](O)CC[C@]4(C)[C@H]3CC[C@]12C)C(C)C` [Compound 4, Stigmasterol], in experiment [3] (setting [6]), the inhibition at 100 µg/mL is 0%.
On the same count and under the same terms, in the case of `CCCCCCCCCCCCCCCCCCCCCCCC` [Compound 5, Tetracosane] it was 0%; in that of `CCCCCCCCCCCCCCCCC(=O)O` [Compound 6, Margaric acid], 0%.
For the compound `O=c1ccc2cc(O)c(O)cc2o1` [Esculetin], in experiment [1], the “mode of inhibition” value is “competitive inhibition” and the “relative potency among selected coumarins against xanthine oxidase” value is “most potent inhibitor”. Also, the “xanthine oxidase inhibitory activity (in words)” value in experiment [4] is recorded as “strong”.
Turning to `O=c1ccc2ccccc2o1` [coumarin], the “mode of inhibition” value in experiment [1] was “competitive inhibition”.
As to `O=C1CCc2ccccc2O1` [dihydrocoumarin], the “mode of inhibition” value in experiment [1] is listed as “competitive inhibition”.
In the case of `COc1cc2ccc(=O)oc2cc1O` [scopoletin], the “mode of inhibition” value in experiment [1] is “competitive inhibition”.

These data come from article PMC7590683, “Xanthine oxidase inhibitory activity of a new isocoumarin obtained from Marantodes pumilum var. pumila leaves” (BMC Complementary Medicine and Therapies, 2020).
